The NIST ThermoML archive (doi:10.1016/j.tca.2016.07.005)
Numbers after ± are expanded uncertainties.

Assay: xn = mol fraction of the nth substance listed
Settings: 101.3 kPa, Liquid; for viscosity: Concentric cylinders viscometry; for mass density: Vibrating tube method

O=S1(=O)CCCC1 [sulfolane] + OCC(O)CO
Settings	mass density [kg/m3]	viscosity [mPa·s]
313.15 K, x2 = 0	1251.7 ± 2	8.1 ± 0.8
313.15 K, x2 = 0.1002	1249.6 ± 2	8.5 ± 0.9
313.15 K, x2 = 0.2002	1248.8 ± 2	10.5 ± 1.1
313.15 K, x2 = 0.3002	1248.4 ± 2	14.4 ± 1.4
313.15 K, x2 = 0.4001	1247.8 ± 2	19.2 ± 1.9
313.15 K, x2 = 0.5001	1247.5 ± 2	30.4 ± 3.1
313.15 K, x2 = 0.5999	1247.5 ± 2	46.2 ± 4.6
313.15 K, x2 = 0.6999	1247.5 ± 2	70.7 ± 7.1
313.15 K, x2 = 0.7999	1248.5 ± 2	101 ± 10
313.15 K, x2 = 0.8993	1248.9 ± 2	164 ± 17
323.15 K, x2 = 0	1244 ± 2	6.4 ± 0.6
323.15 K, x2 = 0.1002	1240.9 ± 2	7.2 ± 0.7
323.15 K, x2 = 0.2002	1240.1 ± 2	8.5 ± 0.9
323.15 K, x2 = 0.3002	1239.7 ± 2	11.2 ± 1.1
323.15 K, x2 = 0.4001	1239.2 ± 2	14.4 ± 1.4
323.15 K, x2 = 0.5001	1239.1 ± 2	22 ± 2.2
323.15 K, x2 = 0.5999	1239.2 ± 2	32.2 ± 3.2
323.15 K, x2 = 0.6999	1239.7 ± 2	45.9 ± 4.6
323.15 K, x2 = 0.7999	1241.2 ± 2	66.5 ± 6.7
323.15 K, x2 = 0.8993	1241.9 ± 2	103 ± 10
333.15 K, x2 = 0	1235.4 ± 2	5.2 ± 0.5
333.15 K, x2 = 0.1002	1232.1 ± 2	5.8 ± 0.6
333.15 K, x2 = 0.2002	1231.3 ± 2	6.6 ± 0.7
333.15 K, x2 = 0.3002	1231 ± 2	8.3 ± 0.8
333.15 K, x2 = 0.4001	1230.7 ± 2	10.4 ± 1
333.15 K, x2 = 0.5001	1230.7 ± 2	14.6 ± 1.5
333.15 K, x2 = 0.5999	1231.1 ± 2	20.3 ± 2
333.15 K, x2 = 0.6999	1232 ± 2	28.8 ± 2.9
333.15 K, x2 = 0.7999	1233.7 ± 2	41.8 ± 4.2
333.15 K, x2 = 0.8993	1234.8 ± 2	61.7 ± 6.2
343.15 K, x2 = 0	1225 ± 2	4.3 ± 0.4
343.15 K, x2 = 0.1002	1223.2 ± 2	4.7 ± 0.5
343.15 K, x2 = 0.2002	1222.5 ± 2	5.3 ± 0.5
343.15 K, x2 = 0.3002	1222.3 ± 2	6.3 ± 0.6
343.15 K, x2 = 0.4001	1222.3 ± 2	7.7 ± 0.8
343.15 K, x2 = 0.5001	1222.7 ± 2	10.2 ± 1
343.15 K, x2 = 0.5999	1223.3 ± 2	13.6 ± 1.4
343.15 K, x2 = 0.6999	1224.1 ± 2	18.5 ± 1.9
343.15 K, x2 = 0.7999	1226.2 ± 2	26.6 ± 2.7
343.15 K, x2 = 0.8993	1227.5 ± 2	38 ± 3.8
353.15 K, x2 = 0	1215 ± 2	3.7 ± 0.4
353.15 K, x2 = 0.1002	1214.3 ± 2	3.9 ± 0.4
353.15 K, x2 = 0.2002	1213.7 ± 2	4.3 ± 0.4
353.15 K, x2 = 0.3002	1213.6 ± 2	4.9 ± 0.5
353.15 K, x2 = 0.4001	1213.8 ± 2	6 ± 0.6
353.15 K, x2 = 0.5001	1214.4 ± 2	7.4 ± 0.7
353.15 K, x2 = 0.5999	1215.3 ± 2	9.8 ± 1
353.15 K, x2 = 0.6999	1216.1 ± 2	12.9 ± 1.3
353.15 K, x2 = 0.7999	1218.5 ± 2	18 ± 1.8
353.15 K, x2 = 0.8993	1220.2 ± 2	24.9 ± 2.5
363.15 K, x2 = 0	1206 ± 2	3.2 ± 0.3
363.15 K, x2 = 0.1002	1205.3 ± 2	3.3 ± 0.3
363.15 K, x2 = 0.2002	1204.8 ± 2	3.5 ± 0.4
363.15 K, x2 = 0.3002	1204.8 ± 2	4 ± 0.4
363.15 K, x2 = 0.4001	1205.1 ± 2	4.7 ± 0.5
363.15 K, x2 = 0.5001	1205.9 ± 2	5.8 ± 0.6
363.15 K, x2 = 0.5999	1206.9 ± 2	7.4 ± 0.7
363.15 K, x2 = 0.6999	1208 ± 2	9.4 ± 0.9
363.15 K, x2 = 0.7999	1210.7 ± 2	12.7 ± 1.3
363.15 K, x2 = 0.8993	1212.7 ± 2	17.1 ± 1.7

O=S1(=O)CCCC1 [sulfolane] + CCCC[n+]1ccn(C)c1.O=S(=O)([N-]S(=O)(=O)C(F)(F)F)C(F)(F)F
Settings	mass density [kg/m3]	viscosity [mPa·s]
293.15 K, x2 = 0.1	1315.1 ± 2.1	16.7 ± 1.7
293.15 K, x2 = 0.1999	1345.9 ± 2.1	19.8 ± 2
293.15 K, x2 = 0.3001	1368.7 ± 2.1	23.8 ± 2.4
293.15 K, x2 = 0.4	1386.1 ± 2.1	28.2 ± 2.8
293.15 K, x2 = 0.5001	1400.1 ± 2.1	32.9 ± 3.3
293.15 K, x2 = 0.5999	1411.3 ± 2.1	38 ± 3.8
293.15 K, x2 = 0.7	1420.8 ± 2.1	43.2 ± 4.3
293.15 K, x2 = 0.7995	1428.6 ± 2.1	49.6 ± 5
293.15 K, x2 = 0.8985	1435.3 ± 2.1	55.1 ± 5.5
298.15 K, x2 = 0	1266.4 ± 2	11.9 ± 1.2
298.15 K, x2 = 0.1	1310.6 ± 2.1	14.8 ± 1.5
298.15 K, x2 = 0.1999	1341.3 ± 2.1	17 ± 1.7
298.15 K, x2 = 0.3001	1364.6 ± 2.1	19.9 ± 2
298.15 K, x2 = 0.4	1381.3 ± 2.1	23.2 ± 2.3
298.15 K, x2 = 0.5001	1395.3 ± 2.1	26.7 ± 2.7
298.15 K, x2 = 0.5999	1406.5 ± 2.1	30.8 ± 3.1
298.15 K, x2 = 0.7	1416 ± 2.1	34.7 ± 3.5
298.15 K, x2 = 0.7995	1423.8 ± 2.1	39.8 ± 4
298.15 K, x2 = 0.8985	1430.5 ± 2.1	44.4 ± 4.5
303.15 K, x2 = 0	1259.4 ± 2	10.5 ± 1.1
303.15 K, x2 = 0.1	1306.1 ± 2.1	12.8 ± 1.3
303.15 K, x2 = 0.1999	1336.7 ± 2.1	14.3 ± 1.4
303.15 K, x2 = 0.3001	1359.1 ± 2.1	16.5 ± 1.7
303.15 K, x2 = 0.4	1376.6 ± 2.1	18.8 ± 1.9
303.15 K, x2 = 0.5001	1390.5 ± 2.1	21.5 ± 2.2
303.15 K, x2 = 0.5999	1401.7 ± 2.1	24.7 ± 2.5
303.15 K, x2 = 0.7	1411.1 ± 2.1	27.3 ± 2.7
303.15 K, x2 = 0.7995	1419 ± 2.1	31.1 ± 3.1
303.15 K, x2 = 0.8985	1425.7 ± 2.1	35.1 ± 3.5
313.15 K, x2 = 0	1251.7 ± 2	8.1 ± 0.8
313.15 K, x2 = 0.1	1297 ± 2.1	9.7 ± 1
313.15 K, x2 = 0.1999	1327.5 ± 2.1	10.7 ± 1.1
313.15 K, x2 = 0.3001	1349.4 ± 2.1	12.3 ± 1.2
313.15 K, x2 = 0.4	1367.2 ± 2.1	13.4 ± 1.3
313.15 K, x2 = 0.5001	1381.1 ± 2.1	15.4 ± 1.5
313.15 K, x2 = 0.5999	1392.2 ± 2.1	17.6 ± 1.8
313.15 K, x2 = 0.7	1401.6 ± 2.1	18.7 ± 1.9
313.15 K, x2 = 0.7995	1409.4 ± 2.1	21.2 ± 2.1
313.15 K, x2 = 0.8985	1416.1 ± 2.1	24.4 ± 2.4
323.15 K, x2 = 0	1244 ± 2	6.4 ± 0.6
323.15 K, x2 = 0.1	1288 ± 2	7.7 ± 0.8
323.15 K, x2 = 0.1999	1318.3 ± 2.1	8.4 ± 0.8
323.15 K, x2 = 0.3001	1340.2 ± 2.1	9.7 ± 1
323.15 K, x2 = 0.4	1357.8 ± 2.1	10.2 ± 1
323.15 K, x2 = 0.5001	1371.6 ± 2.1	11.9 ± 1.2
323.15 K, x2 = 0.5999	1382.8 ± 2.1	13.6 ± 1.4
323.15 K, x2 = 0.7	1392.1 ± 2.1	14.1 ± 1.4
323.15 K, x2 = 0.7995	1399.9 ± 2.1	16 ± 1.6
323.15 K, x2 = 0.8985	1406.6 ± 2.1	18.4 ± 1.8
333.15 K, x2 = 0	1235.4 ± 2	5.2 ± 0.5
333.15 K, x2 = 0.1	1279 ± 2.1	5.7 ± 0.6
333.15 K, x2 = 0.1999	1309 ± 2.1	6.3 ± 0.6
333.15 K, x2 = 0.3001	1331 ± 2.1	7.3 ± 0.7
333.15 K, x2 = 0.4	1348.4 ± 2.1	7.5 ± 0.8
333.15 K, x2 = 0.5001	1362.2 ± 2.1	9.2 ± 0.9
333.15 K, x2 = 0.5999	1373.3 ± 2.1	10.5 ± 1.1
333.15 K, x2 = 0.7	1382.6 ± 2.1	10.8 ± 1.1
333.15 K, x2 = 0.7995	1390.4 ± 2.1	12.2 ± 1.2
333.15 K, x2 = 0.8985	1397.1 ± 2.1	14.1 ± 1.4
343.15 K, x2 = 0	1225 ± 2	4.3 ± 0.4
343.15 K, x2 = 0.1	1269.9 ± 2.1	4.6 ± 0.5
343.15 K, x2 = 0.1999	1299.8 ± 2.1	5.1 ± 0.5
343.15 K, x2 = 0.3001	1321.8 ± 2.1	5.9 ± 0.6
343.15 K, x2 = 0.4	1339.1 ± 2.1	6.2 ± 0.6
343.15 K, x2 = 0.5001	1352.8 ± 2.1	7.3 ± 0.7
343.15 K, x2 = 0.5999	1363.9 ± 2.1	8.2 ± 0.8
343.15 K, x2 = 0.7	1373.2 ± 2.1	8.6 ± 0.9
343.15 K, x2 = 0.7995	1381 ± 2.1	9.5 ± 1
343.15 K, x2 = 0.8985	1387.6 ± 2.1	10.7 ± 1.1
